According to ChEMBL document CHEMBL3785084, “Rational modification of the lead molecule: Enhancement in the anticancer and dihydrofolate reductase inhibitory activity” (Bioorg Med Chem Lett, 2016):

Tests used:
SR = experiment: Cytotoxicity against human SR cells after 48 hrs by sulforhodamine B assay; type: functional
cells [1] = conditions: Homo sapiens, UACC-62, 48 h
Description: Cytotoxicity against human UACC62 cells after 48 hrs by sulforhodamine B assay

cells [2] = conditions: Homo sapiens, OVCAR-3, 48 h
Description: Cytotoxicity against human OVCAR3 cells after 48 hrs by sulforhodamine B assay

cells [3] = conditions: Homo sapiens, OVCAR-4, 48 h
Description: Cytotoxicity against human OVCAR4 cells after 48 hrs by sulforhodamine B assay

cells [4] = conditions: Homo sapiens, OVCAR-5, 48 h
Description: Cytotoxicity against human OVCAR5 cells after 48 hrs by sulforhodamine B assay

cells [5] = conditions: Homo sapiens, OVCAR-8, 48 h
Description: Cytotoxicity against human OVCAR8 cells after 48 hrs by sulforhodamine B assay

cells [6] = conditions: Homo sapiens, SK-OV-3, 48 h
Description: Cytotoxicity against human SKOV3 cells after 48 hrs by sulforhodamine B assay

A498 = experiment: cells; conditions: Homo sapiens, A498, 48 h
Description: Cytotoxicity against human A498 cells after 48 hrs by sulforhodamine B assay

ACHN = experiment: cells; conditions: Homo sapiens, 48 h
Description: Cytotoxicity against human ACHN cells after 48 hrs by sulforhodamine B assay

cells [7] = conditions: Homo sapiens, CAKI-1, 48 h
Description: Cytotoxicity against human Caki1 cells after 48 hrs by sulforhodamine B assay

cells [8] = conditions: Homo sapiens, RXF 393, 48 h
Description: Cytotoxicity against human RXF393 cells after 48 hrs by sulforhodamine B assay

cells [9] = conditions: Homo sapiens, TK-10, 48 h
Description: Cytotoxicity against human TK10 cells after 48 hrs by sulforhodamine B assay

cells [10] = conditions: Homo sapiens, UO-31, 48 h
Description: Cytotoxicity against human UO31 cells after 48 hrs by sulforhodamine B assay

cells [11] = conditions: Homo sapiens, PC-3, 48 h
Description: Cytotoxicity against human PC3 cells after 48 hrs by sulforhodamine B assay

cells [12] = conditions: Homo sapiens, DU-145, 48 h
Description: Cytotoxicity against human DU145 cells after 48 hrs by sulforhodamine B assay

MCF7 = experiment: cells; conditions: Homo sapiens, MCF7, 48 h
Description: Cytotoxicity against human MCF7 cells after 48 hrs by sulforhodamine B assay

T47D = experiment: cells; conditions: Homo sapiens, 48 h
Description: Cytotoxicity against human T47D cells after 48 hrs by sulforhodamine B assay

MDA-MB-468 = experiment: cells; conditions: Homo sapiens, MDA-MB-468, 48 h
Description: Cytotoxicity against human MDA-MB-468 cells after 48 hrs by sulforhodamine B assay

CCRF-CEM = experiment: cells; conditions: Homo sapiens, 48 h
Description: Cytotoxicity against human CCRF-CEM cells after 48 hrs by sulforhodamine B assay

cells [13] = conditions: Homo sapiens, RPMI-8226, 48 h
Description: Cytotoxicity against human RPMI8226 cells after 48 hrs by sulforhodamine B assay

EKVX = experiment: cells; conditions: Homo sapiens, 48 h
Description: Cytotoxicity against human EKVX cells after 48 hrs by sulforhodamine B assay

cells [14] = conditions: Homo sapiens, HOP-62, 48 h
Description: Cytotoxicity against human HOP62 cells after 48 hrs by sulforhodamine B assay

NCI-H23 = experiment: cells; conditions: Homo sapiens, NCI-H23, 48 h
Description: Cytotoxicity against human NCI-H23 cells after 48 hrs by sulforhodamine B assay

NCI-H460 = experiment: cells; conditions: Homo sapiens, NCI-H460, 48 h
Description: Cytotoxicity against human NCI-H460 cells after 48 hrs by sulforhodamine B assay

cells [15] = conditions: Homo sapiens, HCC 2998, 48 h
Description: Cytotoxicity against human HCC2998 cells after 48 hrs by sulforhodamine B assay

cells [16] = conditions: Homo sapiens, HCT-116, 48 h
Description: Cytotoxicity against human HCT116 cells after 48 hrs by sulforhodamine B assay

HT-29 = experiment: cells; conditions: Homo sapiens, HT-29, 48 h
Description: Cytotoxicity against human HT-29 cells after 48 hrs by sulforhodamine B assay

cells [17] = conditions: Homo sapiens, SW-620, 48 h
Description: Cytotoxicity against human SW620 cells after 48 hrs by sulforhodamine B assay

cells [18] = conditions: Homo sapiens, SF-295, 48 h
Description: Cytotoxicity against human SF295 cells after 48 hrs by sulforhodamine B assay

cells [19] = conditions: Homo sapiens, SF-539, 48 h
Description: Cytotoxicity against human SF539 cells after 48 hrs by sulforhodamine B assay

cells [20] = conditions: Homo sapiens, SNB-19, 48 h
Description: Cytotoxicity against human SNB19 cells after 48 hrs by sulforhodamine B assay

U-251 = experiment: cells; conditions: Homo sapiens, U-251, 48 h
Description: Cytotoxicity against human U251 cells after 48 hrs by sulforhodamine B assay

cells [21] = conditions: Homo sapiens, LOX IMVI, 48 h
Description: Cytotoxicity against human LOXIMVI cells after 48 hrs by sulforhodamine B assay

Malme-3M = experiment: cells; conditions: Homo sapiens, 48 h
Description: Cytotoxicity against human MALME-3M cells after 48 hrs by sulforhodamine B assay

M14 = experiment: cells; conditions: Homo sapiens, M14, 48 h
Description: Cytotoxicity against human M14 cells after 48 hrs by sulforhodamine B assay

MDA-MB-435 = experiment: cells; conditions: Homo sapiens, MDA-MB-435, 48 h
Description: Cytotoxicity against human MDA-MB-435 cells after 48 hrs by sulforhodamine B assay

SK-MEL-28 = experiment: cells; conditions: Homo sapiens, SK-MEL-28, 48 h
Description: Cytotoxicity against human SK-MEL-28 cells after 48 hrs by sulforhodamine B assay

COc1cc(/C=C2\C(=O)Nc3ccccc32)cc(OC)c1O
GI50 (SR): 1.5 µM
TGI (SR): 16.9 µM
CC50 (SR; read-out: LC50 (the source's name)): > 100 µM
GI50 (cells [1]): 2.6 µM
TGI (cells [1]): 11.2 µM
CC50 (cells [1]; read-out: LC50): 35.4 µM
GI50 (cells [2]): 2 µM
TGI (cells [2]): 5 µM
CC50 (cells [2]; read-out: LC50): 22.3 µM
GI50 (cells [3]): 4.9 µM
TGI (cells [3]): 31.6 µM
CC50 (cells [3]; read-out: LC50): > 100 µM
GI50 (cells [4]): 4.7 µM
TGI (cells [4]): 18.6 µM
CC50 (cells [4]; read-out: LC50): 52.4 µM
GI50 (cells [5]): 5 µM
TGI (cells [5]): 29.5 µM
CC50 (cells [5]; read-out: LC50): > 100 µM
GI50 (cells [6]): 3.9 µM
TGI (cells [6]): 21.3 µM
CC50 (cells [6]; read-out: LC50): > 100 µM
GI50 (A498): 2.1 µM
TGI (A498): 15.8 µM
CC50 (A498; read-out: LC50): > 100 µM
GI50 (ACHN): 4.7 µM
TGI (ACHN): 22.3 µM
CC50 (ACHN; read-out: LC50): 83.2 µM
GI50 (cells [7]): 2.9 µM
TGI (cells [7]): 25.1 µM
CC50 (cells [7]; read-out: LC50): > 100 µM
GI50 (cells [8]): 2.5 µM
TGI (cells [8]): 8.3 µM
CC50 (cells [8]; read-out: LC50): 30.9 µM
GI50 (cells [9]): 7.1 µM
TGI (cells [9]): 37.1 µM
CC50 (cells [9]; read-out: LC50): > 100 µM
GI50 (cells [10]): 2.6 µM
TGI (cells [10]): 19.9 µM
CC50 (cells [10]; read-out: LC50): > 100 µM
GI50 (cells [11]): 20.8 µM
TGI (cells [11]): > 100 µM
CC50 (cells [11]; read-out: LC50): > 100 µM
GI50 (cells [12]): 5.4 µM
TGI (cells [12]): 46.7 µM
CC50 (cells [12]; read-out: LC50): > 100 µM
GI50 (MCF7): 0.7 µM
TGI (MCF7): 15.1 µM
CC50 (MCF7; read-out: LC50): > 100 µM
GI50 (T47D): 3.5 µM
TGI (T47D): 85.1 µM
CC50 (T47D; read-out: LC50): > 100 µM
GI50 (MDA-MB-468): 1.5 µM
TGI (MDA-MB-468): 7.7 µM
CC50 (MDA-MB-468; read-out: LC50): 63.1 µM
GI50 (CCRF-CEM): 5.1 µM
TGI (CCRF-CEM): > 100 µM
CC50 (CCRF-CEM; read-out: LC50): > 100 µM
GI50 (cells [13]): 5.5 µM
TGI (cells [13]): 27.5 µM
CC50 (cells [13]; read-out: LC50): > 100 µM
GI50 (EKVX): 4.9 µM
TGI (EKVX): 47.8 µM
CC50 (EKVX; read-out: LC50): > 100 µM
GI50 (cells [14]): 4.3 µM
TGI (cells [14]): 23.4 µM
CC50 (cells [14]; read-out: LC50): > 100 µM
GI50 (NCI-H23): 5 µM
TGI (NCI-H23): 33.8 µM
CC50 (NCI-H23; read-out: LC50): > 100 µM
GI50 (NCI-H460): 3 µM
TGI (NCI-H460): 11.7 µM
CC50 (NCI-H460; read-out: LC50): 53.7 µM
GI50 (cells [15]): 11.7 µM
TGI (cells [15]): 24.5 µM
CC50 (cells [15]; read-out: LC50): 51.3 µM
GI50 (cells [16]): 3.3 µM
TGI (cells [16]): 13.4 µM
CC50 (cells [16]; read-out: LC50): 37.1 µM
GI50 (HT-29): 9.1 µM
TGI (HT-29): 30.9 µM
CC50 (HT-29; read-out: LC50): > 100 µM
GI50 (cells [17]): 3.2 µM
TGI (cells [17]): 13.2 µM
CC50 (cells [17]; read-out: LC50): 36.7 µM
GI50 (cells [18]): 3 µM
TGI (cells [18]): 30.9 µM
CC50 (cells [18]; read-out: LC50): > 100 µM
GI50 (cells [19]): 2.5 µM
TGI (cells [19]): 13.2 µM
CC50 (cells [19]; read-out: LC50): 53.7 µM
GI50 (cells [20]): 4.5 µM
TGI (cells [20]): 54.9 µM
CC50 (cells [20]; read-out: LC50): > 100 µM
GI50 (U-251): 2.4 µM
TGI (U-251): 14.1 µM
CC50 (U-251; read-out: LC50): 42.6 µM
GI50 (cells [21]): 4 µM
TGI (cells [21]): 16.2 µM
CC50 (cells [21]; read-out: LC50): 44.6 µM
GI50 (Malme-3M): 2.9 µM
TGI (Malme-3M): 21.8 µM
CC50 (Malme-3M; read-out: LC50): > 100 µM
GI50 (M14): 2.7 µM
TGI (M14): 10.9 µM
CC50 (M14; read-out: LC50): 67.6 µM
GI50 (MDA-MB-435): 0.6 µM
TGI (MDA-MB-435): 2.2 µM
CC50 (MDA-MB-435; read-out: LC50): 6 µM
GI50 (SK-MEL-28): 5 µM
TGI (SK-MEL-28): 22.9 µM
CC50 (SK-MEL-28; read-out: LC50): 83.2 µM
